Reference: patent US12398143B2, “Imidazopyrazine derivatives and the use thereof as medicament” (Boehringer Ingelheim International GmbH, priority 2019, dated 2025)

Experiments:
NMDA NR1/NR2B receptor = biological target: T1, NMDA NR1/NR2B receptor (Homo sapiens, UniProt Q05586+Q13224); assay: NMDA NR1/NR2B FLIPR calcium assay in HEK293 cells; format: cell-based; settings: HEK293 with tetracyclin-inducible NR1/NR2B; 20 μM glycine/1 μM glutamate; compounds of the invention; read-out: IC50 (in vitro affinity as obtained in the FLIPR assay)
T1 construct: host or cells: HEK293, tetracycline-inducible
Method: A human HEK293 cell line with tetracyclin-inducible expression of NMDA NR1/NR2B receptor was used as a test system for compound efficacy and potency. The cell line was purchased from ChanTest, Catalog #CT6121. Compound activity was determined by measuring the effect of compounds on intracellular calcium concentration induced by glycine/glutamate agonism in a FLIPRtetra system (Molecular Devices).
The cells were obtained as frozen cells in cryo-vials and stored until use at −150° C. Cells were grown in culture medium (DMEM/F12, 10% FBS, 5 μg/mL Blasticidin, 150 μg/mL Zeozin, 500 μg/mL Geneticin). […] For sub-culturing the cells were detached from flasks by Versene. For the assay, cells were detached, washed twice with induction medium (DMEM/F12 without glutamine, 10% FBS, 2 μg/mL Tetracycline, 2 mM Ketamine) and seeded to 384 well pure coat amine plates (BD 359324, 50000 cells per well in 50 μl) 48 h prior to assay in induction medium.
The test compounds were dissolved in 100% DMSO at a concentration of 10 mM and in a first step diluted in DMSO to a concentration of 5 mM, followed by serial dilution steps in 100% DMSO. Dilution factor and number of dilution steps may vary according to needs. Typically 8 different concentrations by 1:5 dilutions were prepared in duplicate, further intermediate dilutions (1:37.5) of the substances were carried out with aqueous assay buffer (137 mM NaCl, 4 mM KCl, 1.8 mM CaCl, 10 mM HEPES, 10 mM Glucose, pH 7,4) resulting in a compound concentration 3 times above the final test concentration and DMSO at 2.7% resulting in 0.9% final DMSO concentration in the assay.
At the assay day cells were washed 3× with assay buffer, 10 μL buffer remained in the wells after washing. 10 μL Ca kit loading buffer (AAT Bioquest) was added to the cells and the plates were incubated with lid for 60 minutes at r.t. 20 μl assay buffer containing 60 μM glycine (20 μM final) and 3 μM glutamate (1 μM final) was added to column 1-23. Fluorescence (indicating the calcium influx as a result of the NR1/NR2B ion channel activation) was read on the FLIPRtetra device for 60 seconds to monitor the glutamate induced effects. After 2 minutes 20 μL of compound or controls (row 1-22) in assay buffer were carefully added to the wells. […] The average of 2 measurements at 5 minutes and 5 min 10 seconds after compound addition is calculated and further used for IC50 calculations. Each assay microtiter plate contained wells (in column 23 or 24) with DMSO controls instead of compound as controls for glycine/glutamate induced fluorescence (high controls) and wells with 1 μM of a reference NR2b NAM as low controls (Compound 22; reference: Layton, Mark E et al, ACS Chemical Neuroscience 2011, 2(7), 352-362).
The output file of the reader contains the well number and measured average fluorescence units. For data evaluation and calculation, the measurement of the low control was set as 0% control and the measurement of the high control was set as 100% control. The IC50 values were calculated using the standard 4 parameter logistic regression formula. Calculation: [y=(a−d)/(1+(x/c)^B)+d], a=low value, d=high value; x=conc M; c=IC50 M; b=slope.

human MDR1 (P-gp) = biological target: T2, human MDR1 (P-gp) (Homo sapiens, UniProt P08183); assay: MDCK assay MDR-1 (p-GP) permeability; format: in vitro ADME; settings: dog, MDCK-MDR1 monolayers; for efflux ratio at 2 h: pH 7.4, Papp (b-a)/Papp (a-b); for Papp A→B at 2 h: apical-to-basal, pH 7.4, 1 or 10 μM
T2 construct: expressed in transfected cells; host or cells: MDCKII (Madin-Darby canine kidney)
Method: The MDCK assays provide information on the potential of a compound to pass the blood brain barrier. Permeability measurements across polarized, confluent MDCK-MDR1 cell monolayers grown on permeable filter supports are used as an in vitro absorption model: apparent permeability coefficients (PE) of the compounds across the MDCK-MDR1 cell monolayers are measured (pH 7.4, 37° C.) in apical-to-basal (AB) and basal-to-apical (BA) transport direction. The AB permeability (PEAB) represents drug absorption from the blood into the brain and the BA permeability (PEBA) drug efflux from the brain back into the blood via both, passive permeability as well as active transport mechanisms mediated by efflux and uptake transporters that are expressed on the MDCK-MDR1 cells, predominantly by the overexpressed human MDR1. Identical or similar permeabilities in both transport directions indicate passive permeation, vectorial permeability points to additional active transport mechanisms. Higher PEBA than PEAB (PEBA/PEAB>5) indicates the involvement of active efflux mediated by MDR1, which might compromise the goal to achieve sufficient brain exposure. Therefore, this assay provides valuable support for selection of compounds applicable for further in vivo testing. High permeability not limited by efflux at the blood brain barrier is a favourable characteristic for compounds that are to be used for drugs acting primarily in the CNS. Consequently, to ensure high permeability at the blood brain barrier, it is highly preferred to minimize the efflux (efflux<5) at MDR1 transporter.
Apparent permeability coefficients (Papp) of the compounds across the MDCK-MDR1 monolayers (MDCKII cells transfected with human MDR1 cDNA expression plasmid) are measured in apical-to-basal (AB) and basal-to-apical (BA) direction.
MDCK-MDR1 cells (6×10^5 cells/cm^2) are seeded on filter inserts (Corning, Transwell, polycarbonate, 0.4 μm pore size) and cultured for 9 to 10 days. Compounds dissolved in DMSO stock solution (1-20 mM) are diluted with HTP-4 aqueous buffer (128.13 mM NaCl, 5.36 mM KCl, 1 mM MgSO4, 1.8 mM CaCl2), 4.17 mM NaHCO3, 1.19 mM Na2HPO4, 0.41 mM NaH2PO4, 15 mM HEPES, 20 mM glucose, pH 7.4) supplemented with 0.25% BSA to prepare the transport solutions (final concentration: 1 or 10 μM, final DMSO <=0.5%). The transport solution is applied to the apical or basolateral donor side for measuring A-B or B-A permeability, respectively. The receiver side contains HTP-4 buffer supplemented with 0.25% BSA. Samples are collected at the start and end of experiment from the donor and at various time intervals for up to 2 hours also from the receiver side for concentration measurement by HPLC-MS/MS.
Sampled receiver volumes are replaced with fresh receiver solution. Efflux ratio is calculated dividing the Papp (b-a) values by the Papp (a-b) values.

[1] = Metabolic stability in human liver microsomes; format: in vitro ADME; settings: pooled human liver microsomes, pH 7.6, 37° C., 1 mg/mL microsomal protein, 1 μM compound, NADPH 1 mM, read-out: Half-life - t½ human liver microsomes
Text: Stability in human liver microsomes refers to the susceptibility of compounds to bio-transformation in the context of selecting and/or designing drugs with favorable pharmacokinetic properties. The primary site of metabolism for many drugs is the liver. Human liver microsomes contain the cytochrome P450s (CYPs), and thus represent a model system for studying drug metabolization in vitro. Enhanced stability in human liver microsomes is associated with several advantages, including increased bioavailability and adequate half-life, which can enable lower and less frequent dosing of patients. Thus, enhanced stability in human liver microsomes is a favorable characteristic for compounds that are to be used for drugs.
The metabolic degradation of the test compound was assayed at 37° C. with pooled human liver microsomes. The final incubation volume of […] per time point contains TRIS buffer pH 7.6 at room temperature (0.1 M), magnesium chloride (5 mM aqueous solution), microsomal protein (1 mg/mL for human) and the test compound at a final concentration of 1 μM. Following a short preincubation period at 37° C., the reactions were initiated by addition of betanicotinamide adenine dinucleotide phosphate, reduced form (NADPH, 1 mM), and terminated by transferring an aliquot into solvent after different time points. After centrifugation (10000 g, 5 min), an aliquot of the supernatant was assayed by LC-MS/MS for the amount of parent compound. The half-life was determined by the slope of the semi-logarithmic plot of the concentration-time profile.

T1 sequence (Q13224 27-1484, other chains not shown): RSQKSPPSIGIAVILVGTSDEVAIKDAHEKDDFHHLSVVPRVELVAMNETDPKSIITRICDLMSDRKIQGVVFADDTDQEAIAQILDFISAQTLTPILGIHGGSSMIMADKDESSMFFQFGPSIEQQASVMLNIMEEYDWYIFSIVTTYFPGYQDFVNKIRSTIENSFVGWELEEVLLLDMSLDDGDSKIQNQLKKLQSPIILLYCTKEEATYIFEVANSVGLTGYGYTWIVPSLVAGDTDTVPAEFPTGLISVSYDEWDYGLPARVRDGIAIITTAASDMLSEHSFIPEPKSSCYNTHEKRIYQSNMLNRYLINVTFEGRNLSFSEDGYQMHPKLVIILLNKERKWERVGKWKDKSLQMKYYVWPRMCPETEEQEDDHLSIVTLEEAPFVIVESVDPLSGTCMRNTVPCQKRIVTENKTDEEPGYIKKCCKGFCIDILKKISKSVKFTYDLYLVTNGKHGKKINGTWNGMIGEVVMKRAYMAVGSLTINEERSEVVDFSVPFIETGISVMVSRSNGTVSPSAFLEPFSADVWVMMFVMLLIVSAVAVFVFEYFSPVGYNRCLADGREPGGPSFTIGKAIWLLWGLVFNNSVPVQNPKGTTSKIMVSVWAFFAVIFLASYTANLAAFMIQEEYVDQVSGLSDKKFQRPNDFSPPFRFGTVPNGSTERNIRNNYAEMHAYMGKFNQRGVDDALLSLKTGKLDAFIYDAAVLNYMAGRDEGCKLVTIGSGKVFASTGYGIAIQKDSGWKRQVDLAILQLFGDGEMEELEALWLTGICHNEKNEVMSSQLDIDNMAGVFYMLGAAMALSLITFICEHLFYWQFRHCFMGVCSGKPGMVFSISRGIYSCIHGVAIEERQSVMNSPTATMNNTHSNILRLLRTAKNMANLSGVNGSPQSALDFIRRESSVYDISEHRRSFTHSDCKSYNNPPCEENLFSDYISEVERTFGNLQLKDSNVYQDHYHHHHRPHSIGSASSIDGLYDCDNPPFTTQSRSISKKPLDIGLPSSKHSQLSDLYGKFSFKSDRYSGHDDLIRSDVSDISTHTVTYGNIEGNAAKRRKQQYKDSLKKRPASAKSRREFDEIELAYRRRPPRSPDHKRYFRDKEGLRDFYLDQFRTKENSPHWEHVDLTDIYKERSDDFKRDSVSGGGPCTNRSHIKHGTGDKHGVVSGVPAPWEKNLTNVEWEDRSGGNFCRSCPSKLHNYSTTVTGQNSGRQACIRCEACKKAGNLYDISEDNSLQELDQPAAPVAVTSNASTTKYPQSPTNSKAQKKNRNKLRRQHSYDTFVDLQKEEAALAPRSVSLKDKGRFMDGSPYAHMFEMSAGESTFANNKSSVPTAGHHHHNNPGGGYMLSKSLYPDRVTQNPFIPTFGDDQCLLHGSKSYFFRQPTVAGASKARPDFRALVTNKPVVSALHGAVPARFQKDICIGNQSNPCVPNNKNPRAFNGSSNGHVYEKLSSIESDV
T2 sequence (P08183 whole entry): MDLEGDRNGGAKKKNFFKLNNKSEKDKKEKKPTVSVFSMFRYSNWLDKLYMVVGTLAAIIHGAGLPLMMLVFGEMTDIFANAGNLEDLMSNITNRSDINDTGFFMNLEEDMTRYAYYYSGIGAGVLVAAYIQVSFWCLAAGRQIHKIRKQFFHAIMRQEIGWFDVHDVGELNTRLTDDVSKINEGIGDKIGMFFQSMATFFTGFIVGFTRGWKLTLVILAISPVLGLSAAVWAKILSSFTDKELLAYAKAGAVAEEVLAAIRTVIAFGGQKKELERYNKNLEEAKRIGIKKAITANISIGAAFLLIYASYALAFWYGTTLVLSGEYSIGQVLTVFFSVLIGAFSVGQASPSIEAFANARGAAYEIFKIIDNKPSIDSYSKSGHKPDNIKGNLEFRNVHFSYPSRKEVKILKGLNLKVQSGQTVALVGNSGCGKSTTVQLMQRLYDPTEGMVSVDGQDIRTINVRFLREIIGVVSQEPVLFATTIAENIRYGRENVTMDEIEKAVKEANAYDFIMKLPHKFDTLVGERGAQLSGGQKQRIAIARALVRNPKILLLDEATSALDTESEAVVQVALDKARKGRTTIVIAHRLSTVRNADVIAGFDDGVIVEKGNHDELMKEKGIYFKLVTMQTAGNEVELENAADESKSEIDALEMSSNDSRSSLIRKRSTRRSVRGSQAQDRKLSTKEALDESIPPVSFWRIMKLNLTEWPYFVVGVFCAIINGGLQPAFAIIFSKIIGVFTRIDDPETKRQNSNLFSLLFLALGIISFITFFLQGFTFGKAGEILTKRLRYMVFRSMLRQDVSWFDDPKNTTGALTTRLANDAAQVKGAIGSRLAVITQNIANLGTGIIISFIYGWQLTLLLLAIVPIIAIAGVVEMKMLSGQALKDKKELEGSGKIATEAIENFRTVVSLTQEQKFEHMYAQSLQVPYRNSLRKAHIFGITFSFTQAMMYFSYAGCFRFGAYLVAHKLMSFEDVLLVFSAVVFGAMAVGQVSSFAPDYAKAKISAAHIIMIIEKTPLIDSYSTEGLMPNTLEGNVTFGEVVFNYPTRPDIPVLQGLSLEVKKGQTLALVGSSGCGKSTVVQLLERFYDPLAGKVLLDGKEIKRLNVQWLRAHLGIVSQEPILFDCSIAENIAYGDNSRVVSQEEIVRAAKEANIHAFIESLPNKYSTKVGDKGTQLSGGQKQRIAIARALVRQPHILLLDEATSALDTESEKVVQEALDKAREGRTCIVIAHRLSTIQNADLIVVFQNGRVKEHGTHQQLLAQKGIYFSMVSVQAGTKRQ

Row | SMILES | IC50 (NMDA NR1/NR2B receptor) [µM] | efflux ratio at 2 h (human MDR1 (P-gp)) | Papp A→B at 2 h (human MDR1 (P-gp)) [nm/s] | half-life at 1 μM [1] [min]
1 | O=C(OCc1ccc(F)cc1F)N1CCO[C@H](c2nc3nccnc3[nH]2)C1 [Example 5] | 0.477 | 1.4 | 400 | > 130
2 | Cc1cccc(COC(=O)N2CCO[C@H](c3nc4nccnc4[nH]3)C2)c1F [Example 3] | 0.725 | 0.7 | 610 | 8
3 | O=C(OCc1ccc(F)cc1)N1CCO[C@H](c2nc3nccnc3[nH]2)C1 [Example 10] | 0.735 | 2.9 | 230 | > 130

These reach a lower IC50 (NMDA NR1/NR2B receptor). Values come first.

Row | IC50 (NMDA NR1/NR2B receptor) [µM] | efflux ratio at 2 h (human MDR1 (P-gp)) | Papp A→B at 2 h (human MDR1 (P-gp)) [nm/s] | half-life at 1 μM [1] [min] | SMILES
4 | 0.382 | 0.8 | 570 | > 130 | O=C(OCc1ccccc1F)N1CCO[C@H](c2nc3nccnc3[nH]2)C1 [Example 4]
5 | 0.21 | 1.8 | 310 | 36 | Cc1ccc(COC(=O)N2CCO[C@H](c3nc4nccnc4[nH]3)C2)cc1 [Example 12]
6 | 0.09 | 1.6 | 330 | 31.5 | Cc1ccc(COC(=O)N2CCO[C@H](c3nc4nccnc4[nH]3)C2)c(F)c1 [Example 1]
